{
  "source": "patent US12263172B2",
  "about": "“Toll-like receptor agonists for use in the treatment of hepatitis b” (priority 2019, dated 2025)",
  "system": "CYP1A2, 2B6, and 3A4",
  "assay": "in vitro CYP induction",
  "assay_type": "in vitro ADME",
  "details": "up to 10 μM",
  "data": [
    {"smiles": "CCCCOc1nc(N)c2[nH]cc(Cc3ccc(CN4CCCC4)cc3)c2n1", "note": "[Compound 4]", "values": [
      {"measurement": "in vitro induction of CYP1A2, 2B6, and 3A4", "result": "not an in vitro inducer"}
    ]}
  ]
}
